Tests used:
[1] = Dynamic vapor sorption (DVS) hygroscopicity; format: physicochemical; conditions: at 80% RH, 25° C.
Description: (peak temperature) which is accompanied by 5.9 wt % weight loss up to ˜150° C. in the TGA curve (FIG. 3). […] A solid is considered moderately hygroscopic when water uptake at 25° C./80% RH is between 2-15 wt % based on criteria of European Pharmacopeia. […] Form B of EP-1 trihydrate (x is 3) is a trihydrate as confirmed by single crystal analysis. The experimental XRPD pattern of Form B matches well with the simulated one from single crystal data (FIG. 6). This was also confirmed by DSC and TGA data (FIG. 7 and FIG. 8, respectively). DSC data indicates Form B dehydrates at ˜132° C. […] Form B is slightly hygroscopic as evidenced by a weight change of ˜0.3% between 0% and 95% RH (FIG. 9), (data collection was programmed from 95% RH-0% RH-95% RH at a step size of 10% RH at 25° C.).

[2] = Solubility in Simulated Gastric Fluid (SGF) at 37° C.; format: physicochemical; conditions: for Resulting Solid: XRPD; for Solubility: calculated using free base content
Description: To study if Form A and Form B would perform differently in stomach, the solubilities of Form A and Form B were measured in Simulated Gastric Fluid (SGF, see below for SGF preparation) at 37° C. […] The remaining solids after each time point were subject to XRPD analysis. […] Weigh appropriate amount of hydrochloride (HCl) and sodium chloride (NaCl) into a 1-L flask followed by addition of 1-L deionized water. The mixture was stirred until all solids are dissolved. Check pH value with a pH-meter and adjust the pH to 1.8 with HCl (1N) or NaOH (1N).

Compound: CC(C)N(CC1O[C@@H](n2cnc3c(N)ncnc32)[C@H](O)[C@@H]1O)C1CC(CCc2nc3cc(C(C)(C)C)ccc3[nH]2)C1 (stereo partly drawn) [Form A, (2R,3R,4S,5R)-2-(6-amino-9H-purin-9-yl)-5-((((1r,3S)-3-(2-(5-(tert-butyl)-1H-benzo[d]imidazol-2-yl)ethyl)cyclobutyl)(isopropyl)amino)methyl)tetrahydrofuran-3,4-diol hydrate]
- water adsorption measured by dynamic vapor sorption (DVS) [1]: ~5.8 wt %
- Final pH [2]: 5.1
- time of conversion of Form A to Form B in SGF [2]: ≤ 15 min
- Resulting Solid ([2]; 15 min): Type B
- Solubility ([2]; 15 min): 5400 µg/mL
- Resulting Solid ([2]; 30 min): Type B
- Solubility ([2]; 30 min): 5500 µg/mL
- Resulting Solid ([2]; 60 min): Type B
- Solubility ([2]; 60 min): 5300 µg/mL

Reference: patent US11753433B2, “Methods of synthesizing substituted purine compounds” (Epizyme, Inc., priority 2013, dated 2023)
